In publication PMC7787666, “BUB-1 targets PP2A:B56 to regulate chromosome congression during meiosis I in C. elegans oocytes” (eLife, 2020):
Where no end group is shown, it is not given here. [ ]: non-standard residue; d: D form. The star is where a group is joined. FITC = O=C1OC2(c3ccc(O)cc3Oc3cc(O)ccc32)c2ccc(NC(=S)*)cc21; pS = N[C@@H](COP(=O)(O)O)C(=O)O; Ahx = NCCCCCC(=O)O

Assays:
[1] = tested on: purified recombinant PPTR-2; assay: Fluorescence polarisation, LxxIxE motif-containing FITC-labelled synthetic peptide with purified recombinant PPTR-2; assay type: binding, C. elegans; settings: FITC-labelled peptide 0.5–1 µM, increasing PPTR-2 (1:2 serial dilution), FP buffer 50 mM NaP pH 7.5, 150 mM NaCl, 0.5 mM TCEP, 30 min, PheraStar FS, technical triplicates, representative experiment; for PPTR-2 interaction (binding) assessed using fluorescence polarisation: Figure 4C
Method: Figure 4. B56α^PPTR-1 and B56γ^PPTR-2 are targeted through a LxxIxE motif in BUB-1. (A) C. elegans BUB-1 LxxIxE SLiM is shown aligned with BubR1 and Repoman short linear motifs (SLiMs). The only change within the LxxIxE sequence itself is the presence of a valine instead of isoleucine, which still fits within the consensus ([Wang et al., 2016]). The alignment was performed using Clustal Omega and visualised with Jalview ([Waterhouse et al., 2009]). (B) Disorder prediction of full-length BUB-1 was done using IUPRED2A ([Erdős and Dosztányi, 2020]). All prevuously characterised BUB-1 domains fall within ordered regions < 0.5. The putative SLiM is in a disordered region (IUPRED score ~0.8). (C) PPTR-2 interaction with a LxxIxE motif-containing synthetic peptide was assessed using fluorescence polarisation. Increasing amounts of purified recombinant PPTR-2 were incubated with FITC-labelled wild-type or L282A,V285A mutant peptide. […] (D) Schematic showing the LxxIxE motif in BUB-1 and the BUB-1^L282A,V285A mutant. […] (F) PPTR-1::GFP levels were measured in wild-type and BUB-1^L282A,V285A oocytes throughout meiosis I and the mean ± s.e.m is shown in the graph. […] (H) Midbivalent/central spindle PPTR-2::GFP levels were measured in wild-type and BUB-1^L282A,V285A oocytes throughout meiosis I, and the mean ± s.e.m is shown in the graph. […] (J) Representative, spindle-wide (20 pixels) line profiles are shown for wild-type (top) and BUB-1^L282A,V285A mutant (bottom) measured in prometaphase I (40 s before metaphase I). […] (K) The angle of bivalents 80 s before segregation in meiosis I relative to the average angle of the spindle was measured in wild-type and in BUB-1^L282A,V285A oocytes. […] N represents number of oocytes and n number of bivalents measured. p value shown in the figure was obtained using a Mann–Whitney test. (L) Distance of bivalents 80 s before segregation in meiosis I relative to the centre of the spindle was measured in wild-type and BUB-1^L282A,V285A oocytes. […]

[2] = tested on: phospho Ser 283-specific BUB-1 antibody; assay: Peptide competition of anti-phospho Ser 283 BUB-1 antibody in immunofluorescence; settings: antibody dilutions 1:1,000 and 1:10,000 incubated with 1 µM and 10 µM peptide; fixed oocytes
Method: The antibody was generated by Moravian Biotec by immunising rabbits with the following peptide: RRRHL(pS)PVSEKTC. Serum was adsorbed with a non-phosphorylated peptide (RRRHLSPVSEKTC) followed by affinity purification with the antigenic, phosphorylated peptide. Different fractions were tested in immunofluorescence by incubating different dilutions (1:1,000 and 1:10,000) with 1 µM and 10 µM of either non-phosphorylated or phosphorylated peptide.
Worms were placed on 4 µl of M9 worm buffer in a poly-D-lysine (Sigma, P1024)-coated slide, and a […] coverslip was gently laid on top. Once the worms extruded the embryos, slides were placed on a metal block on dry ice for >10 min. The coverslip was then flicked off with a scalpel blade, and the samples were fixed in methanol at […] for 30 min. After blocking in phosphate-buffered saline (PBS) buffer plus 3% bovine serum albumin and 0.1% Triton X-100 (AbDil), samples were incubated overnight at 4°C with anti-BUB-1 ([Desai et al., 2003]) and anti-tubulin (1/400, clone DM1α, Sigma–Aldrich) in AbDil. After three washes with PBS plus 0.1% Tween, secondary antibodies were added at 1/1000 (goat anti-mouse and goat anti-rabbit conjugated to Alexa Fluor 488, Alexa Fluor 594, Thermo Scientific). […]

Substance | competition of antibody signal in immunofluorescence [2] | PPTR-2 interaction (binding) assessed using fluorescence polarisation [1] | also measured
FITC-Ahx-NPRRRHLphSPVSEKTVDDEEE [pBUB-1, FITC-labelled BUB-1 LxxIxE peptide phosphorylated at serine 283] | – | – | relative affinity for recombinant B56γ^PPTR-2, phosphorylated versus non-phosphorylated peptide ([1]; Figure 5F): higher affinity than non-phosphorylated LxxIxE peptide
RRRHLSPVSEKTC | Only the phosphorylated peptide compited out the signal | – | –
RRRHL[pS]PVSEKTC | Only the phosphorylated peptide compited out the signal | – | –
{FITC-Ahx}-NPRRRHASPASEKTVDDEEE [LAVA, FITC-labelled L282A,V285A mutant BUB-1 peptide] | – | this binding is abolished | –
{FITC-Ahx}-NPRRRHLSPVSEKTVDDEEE [BUB-1, FITC-labelled wild-type BUB-1 LxxIxE motif-containing synthetic peptide] | – | binds to purified recombinant PPTR-2 | –
